Converted amounts (≈) assume the structure as drawn. Each block holds one molecule with its values, some of them ahead of it.
How the values were obtained:
[1] = tested on: Acinetobacter calcoaceticus; test: In vitro antibacterial activity against Acinetobacter calcoaceticus aceticus strain GC 756, expressed as MIC(minimum inhibitory concentration); format: functional
[2] = tested on: Citrobacter freundii; test: In vitro antibacterial activity against Citrobacter freundii strain GC 2211, expressed as MIC(minimum inhibitory concentration); format: functional
[3] = tested on: Enterococcus faecalis; test: In vitro antibacterial activity against Enterococcus faecalis strain GC 842, expressed as MIC(minimum inhibitory concentration); format: functional
[4] = tested on: Enterobacter cloacae; test: In vitro antibacterial activity against Enterobacter cloacae strain GC 2209, expressed as MIC(minimum inhibitory concentration); format: functional
[5] = tested on: Escherichia coli; test: In vitro antibacterial activity against Escherichia coli strain ATCC 25922, expressed as MIC(minimum inhibitory concentration); format: functional
[6] = tested on: Escherichia coli; test: In vitro antibacterial activity against Escherichia coli strain GC 1792, expressed as MIC(minimum inhibitory concentration); format: functional
[7] = tested on: Escherichia coli; test: In vitro antibacterial activity against Escherichia coli strain GC 2205, expressed as MIC(minimum inhibitory concentration); format: functional
[8] = tested on: Morganella morganii; test: In vitro antibacterial activity against Morganella morganii strain GC 2213, expressed as MIC(minimum inhibitory concentration); format: functional
[9] = tested on: Pseudomonas aeruginosa; test: In vitro antibacterial activity against Pseudomonas aeruginosa strain ATCC 27853, expressed as MIC(minimum inhibitory concentration); format: functional
[10] = tested on: Pseudomonas aeruginosa; test: In vitro antibacterial activity against Pseudomonas aeruginosa strain GC 1544, expressed as MIC(minimum inhibitory concentration); format: functional
[11] = tested on: Staphylococcus aureus; test: In vitro antibacterial activity against Staphylococcus aureus strain ATCC 29213, expressed as MIC(minimum inhibitory concentration); format: functional
[12] = tested on: Staphylococcus aureus; test: In vitro antibacterial activity against Staphylococcus aureus strain GC 2220, expressed as MIC(minimum inhibitory concentration); format: functional
[13] = tested on: Stenotrophomonas maltophilia; test: In vitro antibacterial activity against Xanthomonas maltophilia strain GC 562, expressed as MIC(minimum inhibitory concentration); format: functional
[14] = tested on: Enterococcus faecium; test: In vitro antibacterial activity against Enterococcus faecium strain GC 1182, expressed as MIC(minimum inhibitory concentration); format: functional
[15] = target: T1, Dipeptidase 1 (Sus scrofa) (UniProt P22412); test: (§1) Stability towards hog kidney dehydropeptidase (DHP) expressed as relative hydrolysis to imipenem
T1 sequence (whole entry): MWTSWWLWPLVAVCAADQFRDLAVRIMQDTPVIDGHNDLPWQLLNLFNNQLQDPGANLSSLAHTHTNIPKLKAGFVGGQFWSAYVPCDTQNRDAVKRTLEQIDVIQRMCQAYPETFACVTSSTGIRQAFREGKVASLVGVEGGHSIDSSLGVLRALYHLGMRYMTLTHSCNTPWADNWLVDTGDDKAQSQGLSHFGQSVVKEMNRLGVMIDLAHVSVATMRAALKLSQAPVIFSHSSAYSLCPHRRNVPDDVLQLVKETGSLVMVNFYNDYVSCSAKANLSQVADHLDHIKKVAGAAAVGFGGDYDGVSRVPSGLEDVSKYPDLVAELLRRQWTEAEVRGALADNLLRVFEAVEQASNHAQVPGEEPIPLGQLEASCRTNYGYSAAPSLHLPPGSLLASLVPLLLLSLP

[16] = target: T1, Dipeptidase 1 (Sus scrofa); test: as §1; format: functional, tissue-based

Compound: C[C@@H](O)[C@H]1C(=O)N2C(C(=O)[O-])=C(S[C@H]3[C@@H](C(=O)N(C)C)O[C@@H]3CO)[C@H](C)[C@H]12.[Na+]
MIC [1]: 32 µg/mL
MIC [2]: 8 µg/mL
MIC [3]: 32 µg/mL
MIC [4]: 2 µg/mL
MIC [5]: 0.5 µg/mL
MIC [6]: 1 µg/mL
MIC [7]: 0.5 µg/mL
MIC [8]: 4 µg/mL
MIC [9]: > 64 µg/mL
MIC [10]: > 64 µg/mL
MIC [11]: 4 µg/mL
MIC [12]: > 64 µg/mL
MIC [13]: > 64 µg/mL
MIC [14]: > 64 µg/mL

Compound: C[C@@H](O)[C@H]1C(=O)N2C(C(=O)O)=C(SCCNC=N)C[C@H]12 [IMIPENEM ANHYDROUS]
MIC [1]: 0.5 µg/mL (≈ 1.67 µM)
MIC [2]: 0.5 µg/mL (≈ 1.67 µM)
Relative hydrolysis [15]: 100
MIC [3]: 1 µg/mL (≈ 3.34 µM)
MIC [4]: ≤ 0.06 µg/mL
MIC [5]: 0.12 µg/mL (≈ 0.401 µM)
MIC [6]: 0.12 µg/mL (≈ 0.401 µM)
MIC [7]: 0.12 µg/mL (≈ 0.401 µM)
MIC [8]: 2 µg/mL (≈ 6.68 µM)
MIC [9]: 2 µg/mL (≈ 6.68 µM)
MIC [10]: 16 µg/mL (≈ 53.4 µM)
MIC [11]: ≤ 0.06 µg/mL
MIC [12]: 1 µg/mL (≈ 3.34 µM)
MIC [13]: > 128 µg/mL
MIC [14]: 128 µg/mL (≈ 428 µM)

Compound: COC(=O)[C@H]1O[C@H](CO)[C@H]1SC1=C(C(=O)[O-])N2C(=O)[C@H]([C@@H](C)O)[C@H]2[C@H]1C.[Na+]
MIC [1]: 32 µg/mL
MIC [2]: 16 µg/mL
Relative hydrolysis [15]: < 1
MIC [3]: 16 µg/mL
MIC [4]: 4 µg/mL
MIC [5]: 0.5 µg/mL
MIC [6]: 1 µg/mL
MIC [7]: 0.25 µg/mL
MIC [8]: 4 µg/mL
MIC [9]: > 128 µg/mL
MIC [10]: > 128 µg/mL
MIC [11]: 2 µg/mL
MIC [12]: 32 µg/mL
MIC [13]: > 128 µg/mL
MIC [14]: > 128 µg/mL

Now from value to molecule:

MIC [1]: 4 µg/mL (≈ 11.2 µM)
MIC [2]: 1 µg/mL (≈ 2.79 µM)
MIC [3]: 4 µg/mL (≈ 11.2 µM)
MIC [4]: 0.25 µg/mL (≈ 0.698 µM)
MIC [5]: 0.12 µg/mL (≈ 0.335 µM)
MIC [6]: 0.25 µg/mL (≈ 0.698 µM)
MIC [7]: 0.25 µg/mL (≈ 0.698 µM)
MIC [8]: 2 µg/mL (≈ 5.58 µM)
MIC [9]: 16 µg/mL (≈ 44.6 µM)
MIC [10]: 32 µg/mL (≈ 89.3 µM)
MIC [11]: 0.12 µg/mL (≈ 0.335 µM)
MIC [12]: 8 µg/mL (≈ 22.3 µM)
MIC [13]: > 128 µg/mL
MIC [14]: > 128 µg/mL
Compound: C[C@H]1C(S[C@H]2[C@@H](CN)O[C@@H]2CO)=C(C(=O)O)N2C(=O)[C@H]([C@@H](C)O)C12 (some centres not stated)

MIC [1]: 2 µg/mL (≈ 5.84 µM)
MIC [2]: 0.12 µg/mL (≈ 0.35 µM)
Relative hydrolysis [16]: 8.5
MIC [3]: 1 µg/mL (≈ 2.92 µM)
MIC [4]: < 0.06 µg/mL
MIC [5]: ≤ 0.06 µg/mL
MIC [6]: ≤ 0.06 µg/mL
MIC [7]: ≤ 0.06 µg/mL
MIC [8]: 0.5 µg/mL (≈ 1.46 µM)
MIC [9]: 4 µg/mL (≈ 11.7 µM)
MIC [10]: 16 µg/mL (≈ 46.7 µM)
MIC [11]: ≤ 0.06 µg/mL
MIC [12]: 2 µg/mL (≈ 5.84 µM)
MIC [13]: > 128 µg/mL
MIC [14]: 64 µg/mL (≈ 187 µM)
Compound: CC1C(S[C@@H]2CCO[C@@H]2CN)=C(C(=O)O)N2C(=O)[C@H]([C@@H](C)O)[C@@H]12 (single isomer, unassigned)

MIC [1]: > 128 µg/mL
MIC [2]: > 128 µg/mL
Relative hydrolysis [15]: < 1
MIC [3]: 64 µg/mL
MIC [4]: > 128 µg/mL
MIC [5]: > 128 µg/mL
MIC [6]: > 128 µg/mL
MIC [7]: 2 µg/mL
MIC [8]: > 128 µg/mL
MIC [9]: > 128 µg/mL
MIC [10]: > 128 µg/mL
MIC [11]: 4 µg/mL
MIC [12]: 64 µg/mL
MIC [13]: > 128 µg/mL
MIC [14]: > 128 µg/mL
Compound: COC(=O)[C@H]1O[C@H](COS(=O)(=O)c2ccc(C)cc2)[C@H]1SC1=C(C(=O)[O-])N2C(=O)[C@H]([C@@H](C)O)[C@H]2[C@H]1C.[Na+]

MIC [1]: 16 µg/mL (≈ 41.4 µM)
MIC [2]: 1 µg/mL (≈ 2.59 µM)
Relative hydrolysis [15]: < 1
MIC [3]: 32 µg/mL (≈ 82.8 µM)
MIC [4]: 0.25 µg/mL (≈ 0.647 µM)
MIC [5]: 0.25 µg/mL (≈ 0.647 µM)
MIC [6]: 0.5 µg/mL (≈ 1.29 µM)
MIC [7]: 0.5 µg/mL (≈ 1.29 µM)
MIC [8]: 16 µg/mL (≈ 41.4 µM)
MIC [9]: 128 µg/mL (≈ 331 µM)
MIC [10]: > 128 µg/mL
MIC [11]: 1 µg/mL (≈ 2.59 µM)
MIC [12]: 32 µg/mL (≈ 82.8 µM)
MIC [13]: > 128 µg/mL
MIC [14]: > 128 µg/mL
Compound: COC(=O)[C@H]1O[C@H](CN)[C@H]1SC1=C(C(=O)O)N2C(=O)[C@H]([C@@H](C)O)[C@H]2[C@H]1C

MIC [1]: 16 µg/mL
MIC [2]: 1 µg/mL
MIC [3]: 4 µg/mL
MIC [4]: 0.5 µg/mL
MIC [5]: 0.12 µg/mL
MIC [6]: 0.12 µg/mL
MIC [7]: 0.25 µg/mL
MIC [8]: 4 µg/mL
MIC [9]: 64 µg/mL
MIC [10]: 128 µg/mL
MIC [11]: 0.12 µg/mL
MIC [12]: 8 µg/mL
MIC [13]: > 128 µg/mL
MIC [14]: > 128 µg/mL
Compound: C[C@H]1C(S[C@@H]2[C@@H](C)O[C@@H]2CN)=C(C(=O)[O-])N2C(=O)[C@H]([C@@H](C)O)C12.[Na+] (some centres not stated)
